IC50 data for twelve molecules are collected here from US20260022142A1, “MACROCYCLIC IMMUNOMODULATORS” (Bristol-Myers Squibb Company, priority 2022, published 2026).

Bridge positions count the residues as written; N and C are the ends. Square brackets hold non-standard residues; d marks the D form. Peptide text beside a SMILES is read from it. * marks the point of attachment. ξ: configuration not given here. Phe(4-COOH) = N[C@@H](Cc1ccc(C(=O)O)cc1)C(=O)O; Bip = N[C@@H](Cc1ccc(-c2ccccc2)cc1)C(=O)O; NH(CH2)14COOH = O=C(O)CCCCCCCCCCCCCCN*; Phe(3-Me) = Cc1cccc(C[C@H](N)C(=O)O)c1; hArg = N=C(N)NCCCC[C@H](N)C(=O)O; 4Pal = N[C@@H](Cc1ccncc1)C(=O)O; Cha = N[C@@H](CC1CCCCC1)C(=O)O; Thr(3ξ) = CC(O)[C@H](N)C(=O)O; Carboxymethyl = O=C(O)C*; Orn = NCCC[C@H](N)C(=O)O; Aun = NCCCCCCCCCCC(=O)O; Dab = NCC[C@H](N)C(=O)O; AEEA = NCCOCCOCC(=O)O

As usually defined, the IC50 is the concentration that inhibits the measured activity by half.

The target of the experiment is T1, PD-1/PD-L1 interaction (PE-labeled human PD-L1-Ig binding to Jurkat cell line over-expressing human PD-1) (Homo sapiens, UniProt Q15116).
T1 construct: expressed in transfected cells; host or cells: Jurkat
T1 sequence (Q15116 25-288): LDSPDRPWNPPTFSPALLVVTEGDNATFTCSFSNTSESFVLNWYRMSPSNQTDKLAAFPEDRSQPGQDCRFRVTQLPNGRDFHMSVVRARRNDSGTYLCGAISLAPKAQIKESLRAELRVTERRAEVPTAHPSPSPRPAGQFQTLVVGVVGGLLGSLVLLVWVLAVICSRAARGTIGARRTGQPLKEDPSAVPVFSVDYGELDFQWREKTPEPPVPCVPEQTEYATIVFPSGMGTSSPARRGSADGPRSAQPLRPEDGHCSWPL
Description: Jurkat-PD-1 Cell Binding High-Content Screening Assay (CBA). In kind it is cell-based. The settings on record: Jurkat cell line over-expressing human PD-1; PE-labeled PD-L1-Ig 20 nM final; read-out: Jurkat hPD1-PDL1 IC50. In short, it runs like this:
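Binding of fluorescent PD-L1-Ig (phycoerythrin on Ig tag, 20 nM final, 1 h) measured by high-content imaging of fixed, Hoechst-counterstained Jurkat-hPD-1 cells. Compound added 2 h at 37° C beforehand, in DMEM with 10% fetal calf serum.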
As to `CC(C)C[C@@H]1NC(=O)[C@H](Cc2c[nH]c3ccccc23)NC(=O)[C@H](CC(=O)O)NC(=O)[C@H](Cc2ccc(C(=O)O)cc2)NC(=O)[C@H](CCCCNC(=N)N)NC(=O)CSC[C@@H](C(=O)N[C@@H](C)C(=O)N[C@@H](CCN)C(=O)NCCCCCCCCCCCCCCC(=O)O)NC(=O)[C@H](CO)NC(=O)[C@H](C(C)C)NC(=O)[C@H](CC2CCCCC2)NC(=O)[C@H](Cc2c[nH]cn2)NC(=O)[C@@H](CC(C)C)NC(=O)[C@H](CCCN)NC(=O)[C@H](C(C)C)NC(=O)[C@H](Cc2ccc(-c3ccccc3)cc2)NC1=O` [Compound 3019] ({CH2CO}-[hArg][Phe(4-COOH)]DWL[Bip]V[Orn][dL]H[Cha]VSCA[Dab]-{NH(CH2)14COOH}; thioether N-14), the half-maximal inhibitory concentration (IC50) amounted to 336 nM. Turning to `Cc1cccc(C[C@@H]2NC(=O)[C@H](CC(=O)O)NC(=O)[C@H](Cc3ccc(OCC(=O)O)cc3)NC(=O)[C@H](C(C)O)NC(=O)CSC[C@@H](C(=O)N[C@@H](C)C(=O)N[C@@H](CCN)C(=O)NCCCCCCCCCCC(=O)O)NC(=O)[C@H](C(C)O)NC(=O)[C@H](C(C)C)NC(=O)[C@H](CC3CCCCC3)NC(=O)[C@H](CCN)NC(=O)[C@@H](CC(C)C)NC(=O)[C@H](CCCN)NC(=O)[C@H](C(C)C)NC(=O)[C@H](Cc3ccc(-c4ccccc4)cc3)NC(=O)[C@H](C(C)C)NC2=O)c1` (stereo partly drawn) [Compound 3020] ({CH2CO}-[Thr(3ξ)]Y(Carboxymethyl)D[Phe(3-Me)]V[Bip]V[Orn][dL][Dab][Cha]V[Thr(3ξ)]CA[Dab][Aun]-OH; thioether N-14), the 50% inhibitory concentration (IC50) was 12 nM. Turning to `CC(C)C[C@H]1NC(=O)[C@H](CCCN)NC(=O)[C@H](C(C)C)NC(=O)[C@H](Cc2ccc(-c3ccccc3)cc2)NC(=O)[C@H](C(C)C)NC(=O)[C@H](Cc2c[nH]c3ccccc23)NC(=O)[C@H](CC(=O)O)NC(=O)[C@H](Cc2ccc(C(=O)O)cc2)NC(=O)[C@H](C(C)O)NC(=O)CSC[C@@H](C(=O)N[C@@H](C)C(=O)N[C@@H](CCCCN)C(=O)NCCCCCCCCCCCCCCC(=O)O)NC(=O)[C@H](C(C)O)NC(=O)[C@H](C(C)C)NC(=O)[C@H](CC2CCCCC2)NC(=O)[C@H](CCN)NC1=O` (stereo partly drawn) [Compound 3021] ({CH2CO}-[Thr(3ξ)][Phe(4-COOH)]DWV[Bip]V[Orn][dL][Dab][Cha]V[Thr(3ξ)]CAK-{NH(CH2)14COOH}; thioether N-14), the half-maximal inhibitory concentration (IC50) stood at 130 nM. The same measure for `CC(C)C[C@H]1NC(=O)[C@H](CCCN)NC(=O)[C@H](C(C)C)NC(=O)[C@H](Cc2ccc(-c3ccccc3)cc2)NC(=O)[C@H](C(C)C)NC(=O)[C@H](Cc2c[nH]c3ccccc23)NC(=O)[C@H](CC(=O)O)NC(=O)[C@H](Cc2ccc(C(=O)O)cc2)NC(=O)[C@H](C(C)O)NC(=O)CSC[C@@H](C(=O)N[C@@H](C)C(=O)NCCOCCOCC(=O)N[C@@H](CCN)C(=O)NCCCCCCCCCCC(=O)O)NC(=O)[C@H](C(C)O)NC(=O)[C@H](C(C)C)NC(=O)[C@H](CC2CCCCC2)NC(=O)[C@H](CCN)NC1=O` (stereo partly drawn) [Compound 3022] ({CH2CO}-[Thr(3ξ)][Phe(4-COOH)]DWV[Bip]V[Orn][dL][Dab][Cha]V[Thr(3ξ)]CA[AEEA][Dab][Aun]-OH; thioether N-14): 7.3 nM. The same measure for `CC(C)C[C@@H]1NC(=O)[C@H](Cc2c[nH]c3ccccc23)NC(=O)[C@H](CC(=O)O)NC(=O)[C@H](Cc2ccc(C(=O)O)cc2)NC(=O)[C@H](C(C)O)NC(=O)CSC[C@@H](C(=O)N[C@@H](CC(N)=O)C(=O)N[C@@H](CCN)C(=O)NCCCCCCCCCCCCCCC(=O)O)NC(=O)[C@H](CO)NC(=O)[C@H](C(C)C)NC(=O)[C@H](CC2CCCCC2)NC(=O)[C@H](CCN)NC(=O)[C@@H](CC(C)C)NC(=O)[C@H](CCCN)NC(=O)[C@H](C(C)C)NC(=O)[C@H](Cc2ccc(-c3ccccc3)cc2)NC1=O` (stereo partly drawn) [Compound 3023] ({CH2CO}-[Thr(3ξ)][Phe(4-COOH)]DWL[Bip]V[Orn][dL][Dab][Cha]VSCN[Dab]-{NH(CH2)14COOH}; thioether N-14): 184 nM; for `CC(C)C[C@@H]1NC(=O)[C@H](Cc2c[nH]c3ccccc23)NC(=O)[C@H](CC(=O)O)NC(=O)[C@H](Cc2ccc(C(=O)O)cc2)NC(=O)[C@H](C(C)O)NC(=O)CSC[C@@H](C(=O)N[C@@H](C)C(=O)N[C@@H](CCN)C(=O)NCCCCCCCCCCCCCCC(=O)O)NC(=O)[C@H](CO)NC(=O)[C@H](C(C)C)NC(=O)[C@H](CC2CCCCC2)NC(=O)[C@H](Cc2c[nH]cn2)NC(=O)[C@@H](CC(C)C)NC(=O)[C@H](CCCN)NC(=O)[C@H](C(C)C)NC(=O)[C@H](Cc2ccc(-c3ccccc3)cc2)NC1=O` (stereo partly drawn) [Compound 3024] ({CH2CO}-[Thr(3ξ)][Phe(4-COOH)]DWL[Bip]V[Orn][dL]H[Cha]VSCA[Dab]-{NH(CH2)14COOH}; thioether N-14): 891 nM; for `CC(C)C[C@H]1NC(=O)[C@H](CCCN)NC(=O)[C@H](CCC(=O)O)NC(=O)[C@H](Cc2ccc(-c3ccccc3)cc2)NC(=O)[C@H](C(C)C)NC(=O)[C@H](Cc2c[nH]c3ccccc23)NC(=O)[C@H](CC(=O)O)NC(=O)[C@H](Cc2ccncc2)NC(=O)[C@H](C(C)O)NC(=O)CSC[C@@H](C(=O)N[C@@H](C)C(=O)NCCOCCOCC(=O)N[C@@H](CCCCN)C(=O)NCCCCCCCCCCCCCCC(=O)O)NC(=O)[C@H](CO)NC(=O)[C@H](C(C)C)NC(=O)[C@H](CC2CCCCC2)NC(=O)[C@H](CCN)NC1=O` (stereo partly drawn) [Compound 3025] ({CH2CO}-[Thr(3ξ)][4Pal]DWV[Bip]E[Orn][dL][Dab][Cha]VSCA[AEEA]K-{NH(CH2)14COOH}; thioether N-14): 80.5 nM.

Consider `CC(C)C[C@H]1NC(=O)[C@H](CCCN)NC(=O)[C@H](C(C)C)NC(=O)[C@H](Cc2ccc(-c3ccccc3)cc2)NC(=O)[C@H](C(C)C)NC(=O)[C@H](Cc2c[nH]c3ccccc23)NC(=O)[C@H](CC(=O)O)NC(=O)[C@H](Cc2ccc(OCC(=O)O)cc2)NC(=O)[C@H](CCCCNC(=N)N)NC(=O)CSC[C@@H](C(=O)N[C@@H](CC(N)=O)C(=O)NCCOCCOCC(=O)N[C@@H](CCCCN)C(=O)NCCCCCCCCCCC(=O)O)NC(=O)[C@H](C(C)O)NC(=O)[C@H](C(C)C)NC(=O)[C@H](CC2CCCCC2)NC(=O)[C@H](CCN)NC1=O` (stereo partly drawn) [Compound 3026] ({CH2CO}-[hArg]Y(Carboxymethyl)DWV[Bip]V[Orn][dL][Dab][Cha]V[Thr(3ξ)]CN[AEEA]K[Aun]-OH; thioether N-14), for which the IC50 came out at 10 nM. Then `CC(C)C[C@H]1NC(=O)[C@H](CCCN)NC(=O)[C@H](C(C)C)NC(=O)[C@H](Cc2ccc(-c3ccccc3)cc2)NC(=O)[C@H](C(C)C)NC(=O)[C@H](Cc2c[nH]c3ccccc23)NC(=O)[C@H](CC(=O)O)NC(=O)[C@H](Cc2ccc(OCC(=O)O)cc2)NC(=O)[C@H](C(C)O)NC(=O)CSC[C@@H](C(=O)N[C@@H](CC(N)=O)C(=O)NCCOCCOCC(=O)N[C@@H](CCCCN)C(=O)NCCCCCCCCCCC(=O)O)NC(=O)[C@H](C(C)O)NC(=O)[C@H](C(C)C)NC(=O)[C@H](CC2CCCCC2)NC(=O)[C@H](CCN)NC1=O` (stereo partly drawn) [Compound 3027] ({CH2CO}-[Thr(3ξ)]Y(Carboxymethyl)DWV[Bip]V[Orn][dL][Dab][Cha]V[Thr(3ξ)]CN[AEEA]K[Aun]-OH; thioether N-14), with 9.5 nM; and `CC(C)C[C@H]1NC(=O)[C@H](CCCN)NC(=O)[C@H](C(C)C)NC(=O)[C@H](Cc2ccc(-c3ccccc3)cc2)NC(=O)[C@H](C(C)C)NC(=O)[C@H](Cc2c[nH]c3ccccc23)NC(=O)[C@H](CC(=O)O)NC(=O)[C@H](Cc2ccc(OCC(=O)O)cc2)NC(=O)[C@H](CCCCNC(=N)N)NC(=O)CSC[C@@H](C(=O)N[C@@H](C)C(=O)NCCOCCOCC(=O)N[C@@H](CCN)C(=O)NCCCCCCCCCCC(=O)O)NC(=O)[C@H](C(C)O)NC(=O)[C@H](C(C)C)NC(=O)[C@H](CC2CCCCC2)NC(=O)[C@H](CCN)NC1=O` (stereo partly drawn) [Compound 3028] ({CH2CO}-[hArg]Y(Carboxymethyl)DWV[Bip]V[Orn][dL][Dab][Cha]V[Thr(3ξ)]CA[AEEA][Dab][Aun]-OH; thioether N-14), with 16.4 nM. Then `CC(C)C[C@H]1NC(=O)[C@H](CCCN)NC(=O)[C@H](C(C)C)NC(=O)[C@H](Cc2ccc(-c3ccccc3)cc2)NC(=O)[C@H](C(C)C)NC(=O)[C@H](Cc2c[nH]c3ccccc23)NC(=O)[C@H](CC(=O)O)NC(=O)[C@H](Cc2ccc(OCC(=O)O)cc2)NC(=O)[C@H](C(C)O)NC(=O)CSC[C@@H](C(=O)N[C@@H](C)C(=O)NCCOCCOCC(=O)N[C@@H](CCN)C(=O)NCCCCCCCCCCC(=O)O)NC(=O)[C@H](C(C)O)NC(=O)[C@H](C(C)C)NC(=O)[C@H](CC2CCCCC2)NC(=O)[C@H](CCN)NC1=O` (stereo partly drawn) [Compound 3029] ({CH2CO}-[Thr(3ξ)]Y(Carboxymethyl)DWV[Bip]V[Orn][dL][Dab][Cha]V[Thr(3ξ)]CA[AEEA][Dab][Aun]-OH; thioether N-14), with 7.9 nM; and `CC(C)C[C@H]1NC(=O)[C@H](CCCN)NC(=O)[C@H](C(C)C)NC(=O)[C@H](Cc2ccc(-c3ccccc3)cc2)NC(=O)[C@H](C(C)C)NC(=O)[C@H](Cc2c[nH]c3ccccc23)NC(=O)[C@H](CC(=O)O)NC(=O)[C@H](Cc2ccc(OCC(=O)O)cc2)NC(=O)[C@H](CCCCNC(=N)N)NC(=O)CSC[C@@H](C(=O)N[C@@H](CC(N)=O)C(=O)NCCOCCOCC(=O)N[C@@H](CCCN)C(=O)NCCCCCCCCCCC(=O)O)NC(=O)[C@H](C(C)O)NC(=O)[C@H](C(C)C)NC(=O)[C@H](CC2CCCCC2)NC(=O)[C@H](CCN)NC1=O` (stereo partly drawn) [Compound 3030] ({CH2CO}-[hArg]Y(Carboxymethyl)DWV[Bip]V[Orn][dL][Dab][Cha]V[Thr(3ξ)]CN[AEEA][Orn][Aun]-OH; thioether N-14), with 12.1 nM.
